Values joined by “and” are separate entries in the source; they are usually repeats but may differ in a detail not shown here. Identical values can stand only once.

The subject of series [1] is herpes virus. Particulars: in words; cited from earlier work.
The subject of series [2] is HIV-1 (HTLV-IIIB). The series can be described thus: microbe, parasite or virus in culture. It is filed as cell-based. To be noted: for Selectivity Index (SI), ratio of CD50 to ED50 / ED50: HIV-1, MT-4 cells; for ED50: 100 CCID50, 5 days, MTT. Here is the method:
(§1) The compounds were tested in a screen by the MTT method (J. Virol. Methods […]: 309-321 [1988]). MT-4 cells (2.5×10^4 /well) were infected with HIV-1 (HTLV-IIIB) or HIV-2 (LAV-2 ROD) at a concentration of 100 CCID50 and incubated in the presence of various concentrations of the test compounds, which were added immediately after infection with the virus. After 5 days culture at 37° C. in a CO2 incubator, the number of viable cells was assessed by the MTT (tetrazolium) method. […] The potential therapeutic usefulness was assessed by calculating a Selectivity Index (SI) corresponding to the ratio of CD50 to ED50.

For series [3], the system named is HIV-2 (LAV-2 ROD). The series can be described thus: MTT screen of HIV-2 infected MT-4 cells (antiviral activity). It is filed as cell-based. Particulars: for ED50: 100 CCID50, 5 days, MTT. Here is the method:
as §1

The test system of series [4] is MT-4 cells. Nature of the series: in vitro. Here is the method:
as §1

The nature of series [5]: in vitro. To be noted: human, mt-4 cells. Here is the method: as §1
Series [6] has as its system cells. To be noted: in words; cited from earlier work.
The test system of series [7] is reverse transcriptase. To be noted: in words; cited from earlier work.
The subject of series [8] is HIV. To be noted: in words; cited from earlier work.

Turning to K5 BW12 O40, in series [1], the “activity against herpes virus” value is “activity against herpes virus”.

For K6 [BRh(OH2)W11 O39 ]14H2 O, in series [2], the “Selectivity Index (SI), ratio of CD50 to ED50” value (shortened to “Selectivity Index (SI), ratio”) came out at 97 and the ED50 was 5.88 µg/mL. For the same compound, in series [3], the “Selectivity Index (SI), ratio” value came to 18 and the ED50 was determined as 31.58 µg/mL.

Turning to K5 [BPt(OH2)W11 O39 ]yH2 O, the “Selectivity Index (SI), ratio” value was 198 in series [2] and 49 in series [3]. The ED50 in series [2] was determined as 1.66 µg/mL; in series [3], 6.21 µg/mL.

Take “(C6 H11 NH3^+)6 [SiCo(C6 H11 NH2)W11 O39 ]yH2 O [Compound B]”: in series [2], the “Selectivity Index (SI), ratio” value was found to be 99 and the ED50 came to 0.98 µg/mL. Besides, in series [3], the “Selectivity Index (SI), ratio” value is given as 26 and the ED50 was determined as 3.01 µg/mL.

In the case of “((CH3)3 NH^+)5 [SiSn(CH3)W11 O39 ]yH2 O [Compound C]”, in series [2], the “Selectivity Index (SI), ratio” value turned out to be 40 and the ED50 was determined as 0.57 µg/mL. In series [3], the “Selectivity Index (SI), ratio” value was found to be 19 and the ED50 was determined as 3.48 µg/mL.

On to K7 PW10 Ti2 O40, for which the “activity against herpes virus” value in series [1] was “activity against herpes virus”.

For orientation: CC50 means the concentration that lowers cell viability or growth by half. Turning to `Cc1cn([C@H]2C[C@H](N=[N+]=[N-])[C@@H](CO)O2)c(=O)[nH]c1=O` [AZT, reference compound], the “toxicity (in words)” value in series [4] is recorded as “rather high toxicity”. Besides, the half-maximal cytotoxic concentration (CC50) at 120 h in series [5] was over 1000 nM. Also, the toxicity to cells result in series [6] is reported as “high toxicity to cells”. Moreover, the “Selectivity Index (SI), ratio” value in series [2] is 125 and > 125. The EC50 in series [2] (Human immunodeficiency virus 1, IIIB, MT4, 120 h, read-out: ED50) was under 8 nM.

Take K7 [BCo(OH2)W11 O39 ]yH2 O: in series [2], the “Selectivity Index (SI), ratio” value is listed as 47 and the ED50 is 2.74 µg/mL. Also, in series [3], the “Selectivity Index (SI), ratio” value is recorded as under 1 and the ED50 is over 200.0 µg/mL.

As for K5 [SiGa(OH2)W11 O39 ]yH2 O, in series [2], the “Selectivity Index (SI), ratio” value came out at 100 and the ED50 stood at 1.06 µg/mL. Further, in series [3], the “Selectivity Index (SI), ratio” value stood at 14 and the ED50 is 6.19 µg/mL.

For K5 [PCu(OH2)W11 O39 ]yH2 O, the figures for the “Selectivity Index (SI), ratio” value in series [2] and in series [3] were over 82 and over 68, respectively. In addition, the ED50 is 3.04 µg/mL in series [2] and under 2.0 µg/mL in series [3].

Turning to K6 [SiCu(OH2)W11 O39 ]yH2 O, the “Selectivity Index (SI), ratio” value in series [2] is listed as over 84; in series [3] it was over 125. The ED50 in series [2] and in series [3] was under 2.0 µg/mL throughout.

The compound “(C5 H5 NH^+)6 [SiCo(C5 H5 N)W11 O39 ]yH2 O [Compound A]” gave a CD50 in series [4] (human, mt-4 cells, 120 h) of over 1000.0 µg/mL. In series [2], the “Selectivity Index (SI), ratio” value is given as over 502 and the ED50 was 1.99 µg/mL. Also, in series [3], the “Selectivity Index (SI), ratio” value is over 415 and the ED50 amounted to 2.41 µg/mL.

Regarding K7 [BCu(OH2)W11 O39 ]yH2 O, the “Selectivity Index (SI), ratio” value in series [2] is listed as 32; in series [3], 62. The figures for the ED50 in series [2] and in series [3] were 3.51 µg/mL and 2.56 µg/mL, respectively.

For the compound K6 [BGa(OH2)W11 O39 ]yH2 O, the results for the “Selectivity Index (SI), ratio” value in series [2] and in series [3] were 5151 and 298, respectively. Moreover, the ED50 in series [2] was found to be 0.12 µg/mL; in series [3], 1.62 µg/mL.

For K6 [SiCo(OH2)W11 O39 ]yH2 O, in series [2], the “Selectivity Index (SI), ratio” value was over 52 and the ED50 was under 2.0 µg/mL. Also, in series [3], the “Selectivity Index (SI), ratio” value is over 15 and the ED50 was under 2.0 µg/mL.

For the compound “NaSb9 W21 O86 [HPA-23, reference compound]”, the CD50 in series [4] (HIV-1, MT-4 cells, 5 days, 37° C., MTT) came to 7.4 µg/mL; in series [4] (HIV-2, MT-4 cells, 5 days, 37° C., MTT), 2.4 µg/mL. The reverse transcriptase inhibition entry in series [7] is on record as “reverse transcriptase inhibitor”. For the same compound, the “Selectivity Index (SI), ratio” value was 3 in series [2] and under 1 in series [3]. Moreover, the results for the ED50 in series [2] and in series [3] were 2.8 µg/mL and over 4 µg/mL, respectively.

Regarding K5 [PNi(OH2)W11 O39 ]14H2 O, in series [2], the “Selectivity Index (SI), ratio” value is reported as under 1 and the ED50 is over 250.0 µg/mL. Besides, in series [3], the “Selectivity Index (SI), ratio” value is under 1 and the ED50 is over 250.0 µg/mL.

Turning to K6 [SiNi(OH2)W11 O39 ]15H2 O, the CD50 in series [4] (human, mt-4 cells, 120 h) is 198.43 µg/mL. In addition, in series [2], the “Selectivity Index (SI), ratio” value turned out to be 103 and the ED50 came to 1.93 µg/mL. In addition, in series [3], the “Selectivity Index (SI), ratio” value came to 55 and the ED50 was 3.58 µg/mL.

On to silicotungstate acid [H4 SiW12 O40], for which the “activity against HIV” value in series [8] is “activity against HIV”.

As to K13 [Ce(SiW11 O39)2 ]26H2 O, the CD50 in series [4] (human, mt-4 cells, 120 h) was over 1000.0 µg/mL. In series [2], the “Selectivity Index (SI), ratio” value is given as over 2561 and the ED50 turned out to be 0.39 µg/mL. In series [3], the “Selectivity Index (SI), ratio” value is listed as over 6357 and the ED50 was 0.157 µg/mL.

The record behind these values is US5093134A, “Method of treating HIV infection using polyoxometallates” (Johnson Matthey Public Limited Company, priority 1989, dated 1992).
